The values below come from patent US8507472B2 (priority 2010, dated 2013).

The test system of one data set is Alternaria solani. Description: Alternaria test (tomato)/protective. The data set is classed as in vivo. Particulars: 500 ppm active compound; tomato; protective; evaluation 7 days after inoculation. The essentials:
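Young tomato plants were sprayed with compound (DMF/emulsifier formulation diluted in water) and inoculated with A. solani spores 1 day later. Plants were kept 24 h at 100% RH and 22 °C, then at 96% RH and 20 °C. Efficacy was scored 7 days post-inoculation, where 0% equals untreated control and 100% means no infection.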

Data set [1] is described as follows: log P determination by HPLC retention times (alkan-2-one calibration).
For another data set, the system named is Botrytis cinerea. Briefly: Botrytis test (bean)/protective. It counts as in vivo. The note with it: 100 ppm active compound, protective, evaluation 2 days after inoculation. In short, it runs like this: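 Young bean plants sprayed at the stated rate with compound in acetone/dimethylacetamide plus alkylaryl polyglycol ether emulsifier, diluted in water. Once dry, each leaf got 2 agar pieces colonized by Botrytis cinerea; kept dark at about 20° C., 100% humidity. Infected area scored after 2 days; 0% = control, 100% = no infection.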

Data set [2] has as its system Fusarium graminearum. Description: microbe, parasite or virus in culture. It counts as cell-based. Particulars: Fusarium graminearum, 72 h, read-out: % inhibition of the fungal growth of Fusarium graminearum at 50 μM.
Another data set relates to Phytophthora infestans. It counts as in vivo. Particulars: 500 ppm active compound; tomato; protective; evaluation 7 days after inoculation.
For a further data set, the system named is Leptosphaeria nodorum. Briefly: Leptosphaeria nodorum test (wheat)/protective. The data set is classed as in vivo. Particulars: 500 ppm active compound; wheat; protective; evaluation 7-9 days after inoculation. In short, it runs like this:
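Young wheat plants were sprayed protectively, then inoculated 1 day later with L. nodorum spores and held 48 h at 100% humidity and 22° C. They were then kept in a greenhouse at 90% humidity and 22° C. Efficacy was scored 7-9 days post-inoculation, where 0% equals control and 100% means no infection.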

In data set [3] the test system is Fusarium nivale (var. majus). Description: Fusarium nivale (var. majus) test (wheat)/protective. Particulars: 1000 ppm active compound, protective, evaluation 5 days after inoculation. It counts as in vivo. The essentials:
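Protective spray of young wheat plants at the stated rate (compound in dimethylacetamide with emulsifier, diluted in water), then inoculation with Fusarium nivale spores once dry. Plants kept at 10 °C and 100% humidity; scored 5 days after inoculation as % efficacy, where 0% equals untreated control and 100% means no infection.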

For another data set, the system named is Pyrenophora teres. Briefly: Pyrenophora teres test (barley)/protective. The data set is classed as in vivo. Particulars: 500 ppm active compound; barley; protective; evaluation 7-9 days after inoculation. The essentials:
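Protective test: young barley plants sprayed at the stated rate with compound in DMF/alkylaryl polyglycol ether diluted with water, inoculated with P. teres spores 1 day later, kept 48 h at 100% rel. humidity and 22° C., then greenhouse at 80% and 20° C. Efficacy scored 7-9 days post-inoculation (0% = control, 100% = no infection).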

A further data set deals with Uromyces appendiculatus. Description: Uromyces test (bean)/protective. It counts as in vivo. The note with it: 100 ppm active compound; bean; protective; evaluation 10 days after inoculation. The essentials: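 Young bean plants sprayed with compound formulated in acetone/dimethylacetamide with emulsifier, inoculated with Uromyces appendiculatus spores after drying, held 1 day at ~20 °C and 100% humidity, then greenhouse ~21 °C, ~90% humidity. Efficacy scored 10 days post-inoculation, 0% = untreated control, 100% = no infection.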

In data set [4] the test system is Fusarium graminearum. The data set is classed as in vivo. The note with it: 1000 ppm active compound; barley; protective; evaluation 5 days after inoculation.
For the next data set, the system named is Puccinia triticina. Briefly: Puccinia triticina test (wheat)/protective. The data set is classed as in vivo. Particulars: 1000 ppm active compound; wheat; protective; evaluation 8 days after inoculation. In short, it runs like this:
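Protective test: young wheat plants sprayed with compound (dimethylacetamide/alkylaryl polyglycol ether formulation, water-diluted) at stated rate, then inoculated with Puccinia triticina spores once dry; 48 h at 20 °C, 100% RH, then greenhouse ~20 °C, ~80% RH. Efficacy scored 8 days post-inoculation, 0% = control, 100% = no infection.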

The test system of another data set is Sphaerotheca fuliginea. Briefly: Sphaerotheca test (cucumber)/protective. The note with it: 500 ppm active compound; cucumber; protective; evaluation 7 days after inoculation. It counts as in vivo. In short, it runs like this:
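Protective test: young cucumber plants sprayed with compound (DMF/alkylaryl polyglycol ether concentrate diluted in water) at the stated rate, inoculated with S. fuliginea spores 1 day later, then kept in greenhouse at 23 °C, 70% RH. Efficacy scored 7 days post-inoculation; 0% equals untreated control, 100% means no infection.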

The next data set relates to Phakopsora pachyrhizi. Briefly: Phakopsora test (Sojabohnen)/protective. The note with it: 250 ppm active compound, protective, evaluation 1 day after inoculation. It counts as in vivo. As for the experimental part: Solvent: 28.5 parts by weight of acetone
Emulsifier: 1.5 parts by weight of alkylaryl polyglycol ether
To produce a suitable preparation of active compound, 1 part by weight of active compound is mixed with the stated amount of solvent, and the concentrate is diluted with water and the stated amount of emulsifier to the desired concentration.
[…] 1 day after the treatment, the plants are inoculated with an aqueous spore suspension of Phakopsora pachyrhizi. The plants are then placed in a greenhouse at 80% relative atmospheric humidity and 20° C.
Evaluation is carried out 1 day after the inoculation. 0% means an efficacy which corresponds to that of the control, whereas an efficacy of 100% means that no infection is observed.

The test system of the next data set is DON/AcDON production. Description: microbe, parasite or virus in culture. The data set is classed as cell-based, Fusarium graminearum. The note with it: Fusarium graminearum, 168 h, 7 days at 28° C.
Another data set concerns Venturia inaequalis. Briefly: Venturia test (apple)/protective. The data set is classed as in vivo. Particulars: 100 ppm active compound, protective, evaluation 10 days after inoculation. In short, it runs like this: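 Young apple plants sprayed protectively with compound (in acetone/dimethylacetamide with alkylaryl polyglycol ether, diluted in water) at the stated rate, then inoculated with V. inaequalis conidia once dry. Held 1 day at ~20° C, 100% humidity, then greenhouse ~21° C, ~90% humidity; efficacy scored 10 days post-inoculation (0% = control, 100% = no infection).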

As for `CCC(=O)Nc1cc(-c2c(-c3ccc(F)cc3)nn3c2CCCC3)ccn1` [Example 5, N-{4-[2-(4-Fluorophenyl)-4,5,6,7-tetrahydropyrazolo[1,5-a]pyridin-3-yl]pyridin-2-yl}propanamide], the efficacy in % with Alternaria solani is 100%; in the data set on Botrytis cinerea, 100%; in the data set on Phytophthora infestans it was 95%; in the data set on Leptosphaeria nodorum, 94%; in data set [3], 100%; in the data set with Pyrenophora teres it was 100%. Besides, the efficacy in % in the data set with Uromyces appendiculatus stood at 98%; in the data set with Fusarium graminearum [4] it was 100%; in the data set with Puccinia triticina, 100%; in the data set on Sphaerotheca fuliginea it was 95%; in the data set with Phakopsora pachyrhizi it was 80%; with Venturia inaequalis it was 98%. For the same compound, the chromatographic logP came out at 1.97 in data set [1] (log P(HCOOH), HCOOH, preparation examples in the text); 1.97 in data set [1] (log P, values marked [a] in Table 1); 2.58 in [1] (log P, values marked [b] in Table 1). Further, the inhibition at 50 µM is 100% in the data set on Fusarium graminearum [2] and 99% in the data set on DON/AcDON production.

A word on the chromatographic logP: it is a lipophilicity value derived from retention on a column. A high value points to a more lipophilic compound. The term inhibition denotes the change of the read-out against control, counted positive when it falls.
